Reference: patent US11001808B2, “Immortalization of epithelial cells and methods of use” (Georgetown University, priority 2010, dated 2021)
“Also recorded” adds a separate entry of the source.

What was measured:
human prostate cells = assay: Proliferation in serum-containing F medium with Rho-Rock-Myosin pathway inhibitors, Crystal Violet staining (FIG. 23); format: cell-based; conditions: about 5000 cells in 6-well plates, 8 days, Y-27632 5 μM, HA-1100 20 μM, GSK429286 0.1 μM, Fasudil 30 μM, C3 transferase 2 μg/ml, Blebbistatin 5 μM
Method: FIG. 23 depicts that inhibition of the Rho-Rock-Myosin pathway prevents cells from terminally differentiating, allowing the cells to proliferate in serum-containing medium. Normally, serum-containing medium induces terminal differentiation of primary epithelial cells and, in turn, causes senescence in culture. Approximately 5000 human prostate cells were plated in 6-well plates in F medium with addition of Rock inhibitors Y-27632 (5 μM), HA-1100 (20 μM), GSK429286 (0.1 μM), Fasudil (30 μM), a Rho inhibitor (C3 transferase, 2 μg/ml), or a Mysin inihibitor (-Blebbistatin, 5 μM). Eight days later, cells were fixed and stained with 0.05% Crystal Violet.
As used herein, inhibiting ROCK can mean to reduce the activity, function or expression of at least one of ROCK1 or ROCK2. […] In general, ROCK phosphorylates LIM kinase and myosin light chain (MLC) phosphatase after being activated through binding of GTP-bound Rho. One embodiment of the present invention thus involves blocking the upstream pathway of ROCK1 and/or ROCK2, for example GTP-bound Rho, such that ROCK1 and/or ROCK2 is not activated or its activity is reduced over untreated cells. Other upstream effectors include but are not limited to, integrins, growth factor receptors, including but not limited to, TGF-beta and EGFR, cadherins, G protein coupled receptors and the like. Another embodiment of the present invention thus involves blocking the activity, function or expression of downstream effector molecules of activated ROCK1 and/or ROCK2 such that ROCK1 and/or ROCK2 can not propagate any signal or can only propagate a reduced signal over untreated cells. Downstream effectors include but are not limited to, Myosin phosphatase-targeting protein (MYPT), vimentin, LIMK, Myosin light chain kinase, NHE1, cofilin, Myosin II and the like. […] Upstream or downstream inhibition of ROCK, in place of direct ROCK inhibition and in conjunction with the other culture conditions described and required herein, may or may not generate conditionally immortalized NKE cells.

[1] = tested on: recurrent papillomatosis of the larynx; conditions: patient history: interferon 1996-2010, Methotrexate 2001-03, intralesional Cidofovir 2007-2010, intralesional Avastin 2010; cited from earlier work
[2] = tested on: HPV-11-containing tumor cells from the patient; assay: Cell viability curves (CellTiter-Glo Luminescent Cell Viability Assay), patient's cultured tumor cells; format: cell-based, human; conditions: for sensitivity of tumor cells compared with normal lung cells: tumor versus normal lung cells of the same patient, 24 hours
Method: (§1) Normal and tumor cells were treated with Cidofovir, Vorinostat or DHA at indicated concentration for 24 hours. Cell viabilities were measured using CellTiter-Glo® Luminescent Cell Viability Assay (Promega)
(§2) There is no data in the literature, however, analyzing the effect of these inhibitors on cells containing low-risk HPVs, because there are no cell lines established that contain HPV-6 or HPV-11. […] More importantly, this cell line was used to evaluate the sensitivity to the above inhibitors and to compare it to the sensitivity of normal lung cells isolated from the same patient (FIG. 17).
(§3) Cidovovir is the most common drug used for treating RRP.

[3] = tested on: cervical cancer cells that express the high-risk HPVs; conditions: previous studies; cited from earlier work
airway epithelial cells = conditions: Moore et al., 2004; cited from earlier work
[4] = tested on: recurrent respiratory papillomatosis; assay: Vorinostat therapy of the patient, follow-up by CT scan; format: in vivo, human; conditions: one patient, 400 mg/daily, 4 week cycle (3 weeks on, 1 week off)
From the text: A patient with recurrent papillomatosis of the larynx for 16 years was chosen for this study. The disease progressively involved not only the larynx, but had spread to the upper airway (trachea and bronchi) and recently into the lung parenchyma. The patient had had more than 350 surgeries. Besides surgeries, multiple treatments had failed, including interferon treatment (1996-2010), Methotrexate (2001-03), intralesional Cidofovir (2007-2010), and intralesional Avastin (2010). […] By October 2010, the size each lung lesion examined was increasing. During the last surgical intervention, a wedge resection of the right upper lobe was performed to remove metastatic tumor. […] Koilocytotic changes in such tumors are an indication that the tumor is producing infectious HPV. However, at the time of intervention, the type of HPV involved in this tumor had not been identified. Since the tumor had not responded to several different treatment modalities, it was also unclear how the patient would be treated following surgery.
Based on the in vitro sensitivity data, the patient was placed on Vorinostat therapy in January of 2011. The therapy consisted 4 week cycle (3 weeks on, 1 week off) of Vorinostat at 400 mg/daily. […] Thus, the use of the cell culture methods of the present invention were critical in determining a response profile of the abnormal cells, which enabled the identification of at least two chemotherapeutic agents that might be useful for treating this patient's tumors. Using the cell culture methods of the present invention, the response profile, including the genetic analysis and the therapeutic index, was generated within one week of biopsy.

normal lung cells = assay: Cell viability curves (CellTiter-Glo Luminescent Cell Viability Assay), normal cells of the same patient; conditions: treated 24 hours, cell type of the LD50 not stated, taken as normal lung cells from context
Method: as §1, §2, §3

[5] = tested on: human primary prostate cells; assay: In vitro growth curves under various growth conditions (FIG. 2A); format: cell-based
Method: (§4) FIGS. 2A-2B depict in vitro growth curves of human primary prostate cells and human primary mammary cells under various growth conditions. (A) PrEGM is a synthetic commercial prostate epithelial cell growth medium; (B) MEGM is a synthetic commercial mammary epithelial cell medium; Feeders are J2 mouse fibroblasts that have been irradiated or treated with mitomycin C; ROCK inhibitor is Y27632 at a concentration of 10 μM that was applied to the cells at initial plating and thereafter. The y-axis is population doublings and the x-axis is number of days. Media was changed every 3 days for all groups.
(§5) Primary HMECs and HPECs were grown under the four different conditions noted in FIG. 2. […] Feeders were the J2 mouse fibroblasts that have been gamma irradiated. The ROCK inhibitor was Y27632 at a concentration of 10 μM that was applied to the cells at initial plating and thereafter. The y-axis is population doublings and the x-axis is number of days. Media was changed every 2-3 days for all groups.
(§6) Cells grown in the presence of the feeder cells in F medium without ROCK inhibitor had about the same growth rate, i.e., the slope of the lines was about the same, but the cells grown in the presence of feeder cells eventually stopped growing.

[6] = tested on: human primary mammary cells; assay: In vitro growth curves under various growth conditions (FIG. 2B); format: cell-based
Method: as §4, §5, §6

[7] = F medium, irradiated J2 feeders, 10 μM from initial plating

## Cc1ccc2c(c1)C(=O)C1(O)CCN(c3ccccc3)C1=N2 (stereo not shown) [Blebbistatin]
Human prostate cells
  suppression of serum-induced differentiation / proliferation in serum-containing medium: able to suppress cell differentiation by serum
Human prostate cells; listed as blebbistatin
  suppression of serum-induced differentiation / proliferation in serum-containing medium: allow the cells to bypass differentiation and allow proliferation in vitro

## Nc1ccn(C[C@@H](CO)OCP(=O)(O)O)c(=O)n1 [Cidofovir]
[1]
  outcome of earlier treatment: failed
[2]; very high concentrations (50-200 μM), 24 hours (FIG. 17A)
  effect on cell viability in vitro: completely ineffective

## C[C@H]1[C@@H](O)O[C@@H]2O[C@@]3(C)CC[C@H]4[C@H](C)CC[C@@H]1[C@@]24OO3 [DHA]
[3]
  killing of cervical cancer cells: able to efficiently kill
[2]
  sensitivity of tumor cells compared with normal lung cells: approximately 100 fold

## O=S(=O)(c1cccc2cnccc12)N1CCCNCC1 [Fasudil]
Human prostate cells
  suppression of serum-induced differentiation / proliferation in serum-containing medium: able to suppress cell differentiation by serum
Airway epithelial cells
  effect of inhibition on airway epithelial cells: induces membrane ruffling, loss of actin stress fibers and apoptosis

## CC1=C(C(=O)Nc2cc3cn[nH]c3cc2F)C(c2ccc(C(F)(F)F)cc2)CC(=O)N1 (stereo not shown) [GSK429286]
Human prostate cells
  suppression of serum-induced differentiation / proliferation in serum-containing medium: able to suppress cell differentiation by serum

## O=S(=O)(c1cccc2c(O)nccc12)N1CCCNCC1 [HA-1100]
Human prostate cells
  suppression of serum-induced differentiation / proliferation in serum-containing medium: able to suppress cell differentiation by serum

## CN(Cc1cnc2nc(N)nc(N)c2n1)c1ccc(C(=O)N[C@@H](CCC(=O)O)C(=O)O)cc1 [Methotrexate]
[1]
  outcome of earlier treatment: failed

## O=C(CCCCCCC(=O)Nc1ccccc1)NO [SAHA]
[4]
  lesions in more recent CT scan: all lesions had stabilized
  lesions in subsequent CT scan: no new lesions were identified, smaller lesions were shrinking, and some larger lesions were also decreasing in size
  side effects: no major side effects had been observed
[2]
  sensitivity of tumor cells compared with normal lung cells: approximately 100 fold
Normal lung cells
  LD50: approximately 200 μM

## C[C@@H](N)[C@H]1CC[C@H](C(=O)Nc2ccncc2)CC1 [Y-27632]
Human prostate cells
  suppression of serum-induced differentiation / proliferation in serum-containing medium: able to suppress cell differentiation by serum
[5]; [7]
  growth (population doublings) with feeder cells in F medium plus ROCK inhibitor: have continued to grow
[5]; PrEGM synthetic serum-free medium, 10 μM, no feeders
  growth (population doublings) on addition of ROCK inhibitor to synthetic medium: did not affect growth
Airway epithelial cells
  effect of inhibition on airway epithelial cells: induces membrane ruffling, loss of actin stress fibers and apoptosis
[6]; [7]
  growth (population doublings) with feeder cells in F medium plus ROCK inhibitor: have continued to grow
[6]; MEGM synthetic serum-free medium, 10 μM, no feeders
  growth (population doublings) on addition of ROCK inhibitor to synthetic medium: did not affect growth

## C[C@H]1[C@H](OC(=O)CCC(=O)O)O[C@@H]2O[C@@]3(C)CC[C@H]4[C@H](C)CC[C@@H]1[C@@]24OO3 [artesunate]
[3]
  killing of cervical cancer cells: able to efficiently kill

## Avastin: intralesional Avastin, earlier treatment of the patient
[1]
  outcome of earlier treatment: failed

## C3 transferase
Human prostate cells
  suppression of serum-induced differentiation / proliferation in serum-containing medium: able to suppress cell differentiation by serum; also recorded: allow the cells to bypass differentiation and allow proliferation in vitro
